Calls of active or inactive are those of the source. The calls are words filed in the database; no cut-off is given here.
Legend:
[1] = molecular target: T1, Casein kinase II subunit alpha' (Homo sapiens, UniProt P19784); test: Inhibition of NLuc-fused CSNK2A2 (unknown origin) expressed in HEK293 cells incubated for 2 hrs by NanoBRET assay; type: cell-based
Target sequence in this assay (P19784 whole entry, the tested form may be a part): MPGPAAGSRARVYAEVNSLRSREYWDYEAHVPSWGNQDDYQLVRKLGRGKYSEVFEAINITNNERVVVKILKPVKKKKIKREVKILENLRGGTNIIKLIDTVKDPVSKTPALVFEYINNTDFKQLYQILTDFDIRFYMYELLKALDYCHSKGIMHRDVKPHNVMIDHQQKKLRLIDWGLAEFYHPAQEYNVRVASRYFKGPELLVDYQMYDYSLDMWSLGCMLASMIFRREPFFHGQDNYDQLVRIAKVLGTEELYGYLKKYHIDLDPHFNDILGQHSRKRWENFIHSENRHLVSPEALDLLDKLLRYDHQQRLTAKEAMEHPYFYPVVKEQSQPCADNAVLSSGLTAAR

[2] = tested on: Murine hepatitis virus; test: Antiviral activity against Murine hepatitis virus infected in mouse DBT cells preincubated with cells for 1 hrs followed by viral infection and measured after 10 hrs by luminometer; type: functional, organism-based; settings: Murine coronavirus
[3] = Apparent permeability from apical to basolateral side in MDCK-MDR1 cells at 1 uM incubated for 2 hrs by fluorescence plate reader analysis; type: ADME, cell-based, Canis lupus familiaris; settings: dog, mdck-mdr1, 2 h
[4] = Apparent permeability from basolateral to apical side in MDCK-MDR1 cells at 1 uM incubated for 2 hrs by fluorescence plate reader analysis; type: ADME, cell-based, Canis lupus familiaris; settings: dog, mdck-mdr1, 2 h
[5] = Intrinsic clearance in male CD-1 mouse at 3 mg/kg, iv measured after 5 hrs by LC-MS/MS analysis; type: ADME, organism-based; settings: in vivo
[6] = molecular target: T1, Casein kinase II subunit alpha'; test: Inhibition of human CSNK2A2 expressed in HEK293 cells incubated for 2 hrs by NanoBRET assay; type: cell-based
Target sequence in this assay (P19784 whole entry, the tested form may be a part): as above

[7] = molecular target: Dual specificity protein kinase CLK1 (Homo sapiens, UniProt P49759); test: Inhibition of human CLK1 expressed in HEK293 cells incubated for 2 hrs by NanoBRET assay; type: cell-based
[8] = molecular target: Dual specificity protein kinase CLK2 (Homo sapiens, UniProt P49760); test: Inhibition of human CLK2 expressed in HEK293 cells incubated for 2 hrs by NanoBRET assay; type: cell-based
[9] = molecular target: Death-associated protein kinase 2 (Homo sapiens, UniProt Q9UIK4); test: Inhibition of human DAPK2 expressed in HEK293 cells incubated for 2 hrs by NanoBRET assay; type: cell-based
[10] = molecular target: T2, Homeodomain-interacting protein kinase 4 (Homo sapiens, UniProt Q8NE63); test: Inhibition of human HIPK4 expressed in HEK293 cells incubated for 2 hrs by NanoBRET assay; type: cell-based
T2 sequence (Q8NE63 whole entry): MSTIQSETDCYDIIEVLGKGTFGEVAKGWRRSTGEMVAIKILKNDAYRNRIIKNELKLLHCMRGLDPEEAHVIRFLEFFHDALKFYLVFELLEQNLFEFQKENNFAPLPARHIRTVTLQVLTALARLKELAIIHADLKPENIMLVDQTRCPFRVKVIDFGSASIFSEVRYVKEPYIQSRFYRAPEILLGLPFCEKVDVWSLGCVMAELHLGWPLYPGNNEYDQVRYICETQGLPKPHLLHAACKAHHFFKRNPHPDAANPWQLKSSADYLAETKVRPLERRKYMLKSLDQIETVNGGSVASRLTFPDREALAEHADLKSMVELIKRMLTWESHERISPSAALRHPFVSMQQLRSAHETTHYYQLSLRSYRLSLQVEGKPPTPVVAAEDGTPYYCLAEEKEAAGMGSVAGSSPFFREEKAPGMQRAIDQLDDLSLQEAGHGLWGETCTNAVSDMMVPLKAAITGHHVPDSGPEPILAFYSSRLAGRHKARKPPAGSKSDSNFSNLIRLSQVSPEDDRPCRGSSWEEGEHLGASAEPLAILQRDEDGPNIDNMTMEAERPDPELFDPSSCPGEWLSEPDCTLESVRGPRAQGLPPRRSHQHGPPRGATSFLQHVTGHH

[11] = molecular target: Dual specificity protein kinase CLK4 (Homo sapiens, UniProt Q9HAZ1); test: Inhibition of human CLK4 expressed in HEK293 cells incubated for 2 hrs by NanoBRET assay; type: cell-based
[12] = molecular target: Phosphorylase b kinase gamma catalytic chain, skeletal muscle/heart isoform (Homo sapiens, UniProt Q16816); test: Inhibition of human PHKG1 expressed in HEK293 cells incubated for 2 hrs by NanoBRET assay; type: cell-based
[13] = molecular target: Cyclin-dependent kinase 7 (Homo sapiens, UniProt P50613); test: Inhibition of human CDK7 expressed in HEK293 cells incubated for 2 hrs by NanoBRET assay; type: cell-based
[14] = molecular target: Dual specificity tyrosine-phosphorylation-regulated kinase 1A (Homo sapiens) (UniProt Q13627); test: Binding affinity to human DYRK1A expressed in HEK293 cells assessed as target occupancy upto 3 uM incubated for 2 hrs by NanoBRET assay; type: cell-based
[15] = molecular target: Casein kinase II subunit alpha (Homo sapiens, UniProt P68400); test: Inhibition of CSNK2A1 (unknown origin) in presence of ATP by Eurofins radiometric enzymatic assay
[16] = molecular target: T1, Casein kinase II subunit alpha'; test: Inhibition of CSNK2A2 (unknown origin) in presence of ATP by Eurofins radiometric enzymatic assay
Target sequence in this assay (P19784 whole entry, the tested form may be a part): as the sequence (P19784 whole entry, the tested form may be a part) above

[17] = molecular target: T1, Casein kinase II subunit alpha'; test: Inhibition of NLuc-fused CSNK2A2 (unknown origin) expressed in digitonin-permeabilized HEK293 cells incubated for 25 mins by NanoBRET assay; type: cell-based
[18] = molecular target: Casein kinase 2 (Homo sapiens) (UniProt P67870+P68400+P19784+Q8NEV1); test: Inhibition of CSNK2 downstream signaling in human A549-ACE2 cells assessed as reduction in EIF2S2 phosphorylation at 1 to 5 uM measured after 24 hrs by Western blot analysis; type: cell-based; settings: dose 1-5 µM
[19] = Cytotoxicity against human A549-ACE2 cells assessed as reduction in cell viability at >10 uM pretreated for 1 hrs followed by mock infection for 2 hrs and replacement with fresh medium containing compound and measured 48 hrs post mock-infection by LDH assay; type: toxicity, cell-based; settings: a549-ace2, 49 h
[20] = Kinetic solubility of compound in PBS at pH 7.4 incubated for 24 hrs by HPLC analysis; type: physicochemical; settings: buffer, pH 7.4, 24 h
[21] = Cytotoxicity against human A549-ACE2 cells assessed as cell viability at 1 uM incubated for 48 hrs by CellTiter-Glo2 assay relative to control; type: toxicity, cell-based; settings: a549-ace2, 48 h
[22] = Cytotoxicity against human A549-ACE2 cells assessed as cell viability at 0.1 uM incubated for 48 hrs by CellTiter-Glo2 assay relative to control; type: toxicity, cell-based; settings: a549-ace2, 48 h

Sequence of Dual specificity protein kinase CLK1 (P49759 whole entry): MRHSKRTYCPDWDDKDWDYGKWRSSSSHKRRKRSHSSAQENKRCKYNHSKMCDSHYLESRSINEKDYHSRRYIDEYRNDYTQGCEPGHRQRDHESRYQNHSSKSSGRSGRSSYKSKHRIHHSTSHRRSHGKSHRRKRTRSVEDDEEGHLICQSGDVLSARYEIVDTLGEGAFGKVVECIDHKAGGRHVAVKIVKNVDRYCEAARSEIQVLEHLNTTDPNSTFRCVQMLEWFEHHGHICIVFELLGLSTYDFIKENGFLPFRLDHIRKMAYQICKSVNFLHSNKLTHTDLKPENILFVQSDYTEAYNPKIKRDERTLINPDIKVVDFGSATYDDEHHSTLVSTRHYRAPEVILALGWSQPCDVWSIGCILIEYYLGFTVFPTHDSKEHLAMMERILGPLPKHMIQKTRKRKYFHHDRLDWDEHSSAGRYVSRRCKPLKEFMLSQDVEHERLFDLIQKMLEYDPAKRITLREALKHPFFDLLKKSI
Sequence of Dual specificity protein kinase CLK2 (P49760 whole entry): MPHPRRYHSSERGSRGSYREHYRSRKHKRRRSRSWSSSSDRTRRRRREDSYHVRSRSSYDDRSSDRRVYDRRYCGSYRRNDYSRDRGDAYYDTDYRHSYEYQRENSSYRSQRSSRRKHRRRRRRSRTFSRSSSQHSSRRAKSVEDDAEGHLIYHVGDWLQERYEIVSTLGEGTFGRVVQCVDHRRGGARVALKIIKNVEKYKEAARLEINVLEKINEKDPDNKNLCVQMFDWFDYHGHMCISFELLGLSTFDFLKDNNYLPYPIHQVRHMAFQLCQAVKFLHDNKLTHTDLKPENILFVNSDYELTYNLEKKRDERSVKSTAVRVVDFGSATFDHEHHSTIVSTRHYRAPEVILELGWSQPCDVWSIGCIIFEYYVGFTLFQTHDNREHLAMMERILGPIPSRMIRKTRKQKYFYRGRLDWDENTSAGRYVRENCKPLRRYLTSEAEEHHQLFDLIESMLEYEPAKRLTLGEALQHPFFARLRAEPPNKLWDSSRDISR
Sequence of Death-associated protein kinase 2 (Q9UIK4 whole entry): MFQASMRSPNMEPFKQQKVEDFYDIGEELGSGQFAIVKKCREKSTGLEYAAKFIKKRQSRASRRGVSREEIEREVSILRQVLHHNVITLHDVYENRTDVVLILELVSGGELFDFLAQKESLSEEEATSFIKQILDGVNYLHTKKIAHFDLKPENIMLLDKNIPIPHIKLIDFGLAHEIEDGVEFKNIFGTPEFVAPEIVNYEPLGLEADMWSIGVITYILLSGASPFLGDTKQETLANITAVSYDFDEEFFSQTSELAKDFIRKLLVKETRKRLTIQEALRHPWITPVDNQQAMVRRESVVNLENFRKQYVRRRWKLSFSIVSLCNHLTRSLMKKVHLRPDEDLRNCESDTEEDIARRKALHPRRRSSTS
Sequence of Cyclin-dependent kinase 7 (P50613 whole entry): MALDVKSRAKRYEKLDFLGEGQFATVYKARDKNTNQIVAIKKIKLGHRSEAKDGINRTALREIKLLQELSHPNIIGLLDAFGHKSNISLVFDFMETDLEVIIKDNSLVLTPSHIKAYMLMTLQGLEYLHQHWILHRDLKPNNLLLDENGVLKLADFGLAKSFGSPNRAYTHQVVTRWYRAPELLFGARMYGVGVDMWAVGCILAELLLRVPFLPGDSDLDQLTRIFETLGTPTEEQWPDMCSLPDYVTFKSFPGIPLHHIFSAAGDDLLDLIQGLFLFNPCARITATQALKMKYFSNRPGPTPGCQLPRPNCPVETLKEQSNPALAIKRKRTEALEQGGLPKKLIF
Sequence of Phosphorylase b kinase gamma catalytic chain, skeletal muscle/heart isoform (Q16816 whole entry, canonical isoform): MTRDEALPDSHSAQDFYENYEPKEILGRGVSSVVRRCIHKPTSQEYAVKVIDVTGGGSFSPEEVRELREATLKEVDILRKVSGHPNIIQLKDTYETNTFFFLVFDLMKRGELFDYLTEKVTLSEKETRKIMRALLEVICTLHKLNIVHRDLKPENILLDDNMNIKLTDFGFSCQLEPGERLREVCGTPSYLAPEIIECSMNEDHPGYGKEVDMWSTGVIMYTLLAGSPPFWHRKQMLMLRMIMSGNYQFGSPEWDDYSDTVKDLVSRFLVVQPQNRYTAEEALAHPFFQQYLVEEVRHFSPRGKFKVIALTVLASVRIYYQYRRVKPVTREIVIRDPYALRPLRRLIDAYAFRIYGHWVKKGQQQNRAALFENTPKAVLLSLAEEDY
Sequence of Dual specificity protein kinase CLK4 (Q9HAZ1 whole entry, canonical isoform): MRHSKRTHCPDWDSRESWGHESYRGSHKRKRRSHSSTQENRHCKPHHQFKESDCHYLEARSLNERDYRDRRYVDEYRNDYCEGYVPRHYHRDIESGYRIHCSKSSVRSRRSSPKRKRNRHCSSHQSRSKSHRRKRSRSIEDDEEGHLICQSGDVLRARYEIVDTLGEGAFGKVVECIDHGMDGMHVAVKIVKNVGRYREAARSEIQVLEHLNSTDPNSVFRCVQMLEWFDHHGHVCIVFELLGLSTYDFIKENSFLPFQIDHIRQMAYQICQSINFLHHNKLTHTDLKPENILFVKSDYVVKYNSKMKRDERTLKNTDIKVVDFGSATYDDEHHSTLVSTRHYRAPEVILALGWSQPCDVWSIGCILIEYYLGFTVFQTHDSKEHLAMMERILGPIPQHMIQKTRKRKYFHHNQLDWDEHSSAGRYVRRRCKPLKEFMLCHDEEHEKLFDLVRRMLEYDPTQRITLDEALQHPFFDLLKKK
Sequence of Casein kinase II subunit alpha (P68400 whole entry): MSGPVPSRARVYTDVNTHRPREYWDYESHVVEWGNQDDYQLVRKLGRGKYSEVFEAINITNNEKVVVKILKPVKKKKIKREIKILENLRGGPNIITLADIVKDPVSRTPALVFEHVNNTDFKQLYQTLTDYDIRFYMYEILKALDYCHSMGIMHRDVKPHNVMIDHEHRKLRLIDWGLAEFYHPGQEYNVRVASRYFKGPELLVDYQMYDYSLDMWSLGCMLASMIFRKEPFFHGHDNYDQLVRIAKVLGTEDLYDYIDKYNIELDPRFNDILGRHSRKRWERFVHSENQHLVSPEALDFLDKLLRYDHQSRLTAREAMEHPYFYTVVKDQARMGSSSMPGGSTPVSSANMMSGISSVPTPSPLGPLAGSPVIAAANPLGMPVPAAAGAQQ

SMILES	IC50 [1]	IC50 [2]	Kinetic_solubility [20]	Activity [21]	Activity [22]	other results
CCN(CCN)c1ccc(Nc2cc(NC3CC3)n3ncc(C#N)c3n2)cc1-n1cnnc1	316 nM	200 nM				Papp [3]: 0.16 10^-6 cm/s; Papp [4]: 0.36 10^-6 cm/s; CL [5]: 86 mL/min/kg; IC50 [6]: 316 nM; IC50 [7]: 5010 nM; IC50 [8]: 3160 nM; IC50 [9]: 2510 nM; IC50 [10]: 25100 nM; IC50 [11]: 2510 nM; IC50 [12]: 6310 nM; IC50 [13]: 15800 nM; Activity [14]: inactive; IC50 [15]: 1.7 nM; IC50 [16]: 0.66 nM; IC50 [17]: 80 nM; inhibition [17]: Dose-Dependent Effect; inhibition [18]: Active; Activity [19]: Non-Toxic
CN(CCN)c1ccc(Nc2cc(NC3CC3)n3ncc(C#N)c3n2)cc1-n1cnnc1	251 nM	398 nM	45 µg/mL	87%	99%	
C[C@H](N)CN(C)c1ccc(Nc2cc(NC3CC3)n3ncc(C#N)c3n2)cc1-n1cnnc1	316 nM	200 nM	50 µg/mL	76%	93%	
N#Cc1cnn2c(NC3CC3)cc(Nc3cc(-n4cnnc4)ccc3F)nc12	3.16 nM	6.31 nM	1.5 µg/mL	59%	86%	
N#Cc1cnn2c(NC3CC3)cc(Nc3ccc(F)c(-n4cnnc4)c3)nc12	5.01 nM	316 nM	0.3 µg/mL	99%	99%	
